Earlier results as cited in patent publication US20220339166A1, “POST COVID19 VACCINE REMEDIES” (priority 2021, published 2022).
Read-outs that look alike come from different tables or passages of the source.

Key:
ODC = ODC (Homo sapiens, UniProt P11926)
mouse bone marrow = conditions: in vivo
ACE2 = ACE2 (Homo sapiens, UniProt Q9BYF1)
Sequence of ACE2 (Q9BYF1 18-805): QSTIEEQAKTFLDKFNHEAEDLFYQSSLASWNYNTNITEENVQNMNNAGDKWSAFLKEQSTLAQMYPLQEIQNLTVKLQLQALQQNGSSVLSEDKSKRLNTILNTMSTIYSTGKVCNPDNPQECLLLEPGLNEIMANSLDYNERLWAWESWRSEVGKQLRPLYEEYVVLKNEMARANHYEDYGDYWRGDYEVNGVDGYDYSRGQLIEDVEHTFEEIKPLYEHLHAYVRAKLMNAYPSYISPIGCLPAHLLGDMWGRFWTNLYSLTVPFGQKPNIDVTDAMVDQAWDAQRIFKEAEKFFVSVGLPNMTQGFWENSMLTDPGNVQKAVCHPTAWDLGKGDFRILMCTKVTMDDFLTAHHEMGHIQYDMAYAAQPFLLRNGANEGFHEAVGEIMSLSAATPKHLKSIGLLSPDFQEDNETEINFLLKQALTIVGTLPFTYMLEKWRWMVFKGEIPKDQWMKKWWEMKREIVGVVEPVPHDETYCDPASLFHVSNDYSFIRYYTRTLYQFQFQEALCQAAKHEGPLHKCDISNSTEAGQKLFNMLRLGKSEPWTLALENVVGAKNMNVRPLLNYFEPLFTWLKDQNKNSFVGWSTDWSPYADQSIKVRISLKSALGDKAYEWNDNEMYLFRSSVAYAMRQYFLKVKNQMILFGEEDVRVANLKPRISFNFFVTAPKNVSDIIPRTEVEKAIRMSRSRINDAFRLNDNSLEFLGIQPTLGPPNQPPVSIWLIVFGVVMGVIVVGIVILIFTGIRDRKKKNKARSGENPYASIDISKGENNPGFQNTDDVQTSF

Sequence of ODC (P11926 whole entry): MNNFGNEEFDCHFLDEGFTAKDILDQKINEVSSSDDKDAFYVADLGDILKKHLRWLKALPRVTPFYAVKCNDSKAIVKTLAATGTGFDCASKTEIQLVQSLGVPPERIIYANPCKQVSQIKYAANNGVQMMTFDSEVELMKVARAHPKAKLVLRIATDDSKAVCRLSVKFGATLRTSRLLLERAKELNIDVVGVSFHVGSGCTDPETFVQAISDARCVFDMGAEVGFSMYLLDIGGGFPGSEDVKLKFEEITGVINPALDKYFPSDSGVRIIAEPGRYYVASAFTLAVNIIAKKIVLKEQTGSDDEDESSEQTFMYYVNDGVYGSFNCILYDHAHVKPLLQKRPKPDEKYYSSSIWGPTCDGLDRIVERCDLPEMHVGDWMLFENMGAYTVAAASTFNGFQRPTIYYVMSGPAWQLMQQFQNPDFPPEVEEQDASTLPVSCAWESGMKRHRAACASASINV

For `NCCCC(N)(C(=O)O)C(F)F` (stereo not drawn) [DFMO], the “stalls DNA synthesis” value (ODC) is listed as 70-80%.

In the case of `NCCS` [Cysteamine], the DNA synthesis (mouse bone marrow) is listed as “inhibits DNA synthesis”.

In the case of `O=C([O-])O.[Na+]` [sodium bicarbonate], the “reduction of ACE2 affinity and interference with fusion domain for S1 spike protein” value (ACE2) is given as 17%.

In the case of `NCCCC[C@H](N)C(=O)O` [lysine], the “reduction of ACE2 affinity and interference with fusion domain for S1 spike protein” value (ACE2) is listed as 10%.

In the case of `O=C(Cn1ccnc1[N+](=O)[O-])NCc1ccccc1` [benznidazole], the effective in curing (Trypanosoma cruzi; given soon after infection, at the onset of the acute phase) is given as about 100%.

For `CC1CS(=O)(=O)CCN1/N=C/c1ccc([N+](=O)[O-])o1` (stereo not drawn) [nifurtimox], the effective in curing (Trypanosoma cruzi; in vivo) is given as about 100%.
